Reference: article PMC11939470, “The Cyclic Antimicrobial Peptide C-LR18 Has Enhanced Antibacterial Activity, Improved Stability, and a Longer Half-Life Compared to the Original Peptide” (Antibiotics, 2025)
Where a SMILES comes first, the peptide text is derived from it. Bridges are numbered along the chain shown (N, C = ends).

Columns and labels:
[1] = Half-life and pharmacokinetics in SD rats after caudal vein administration (HPLC); type: in vivo
Protocol: Half-life of peptides in SD rats was determined via HPLC according to the method described in [31]. The SD rats were maintained at constant room temperature [(25 ± 2) °C] with free access to food and water for 48 h. Each SD rat was weighed to an accuracy of 0.10 g, numbered, and grouped randomly, with 6 rats in each group. LR18 and C-LR18 were injected into SD rats via tail vein at a dose of 5 mg/kg body weight. A total of 200 μL of blood was collected from the orbital venous plexus at different time points of 0, 0.5, 0.8, 1.0, 1.5, 2.5, 3.5, 5, 10, 30, and 60 min, and placed into a centrifuge tube containing 0.5% heparin sodium. After centrifugation at 3000 r/min for 15 min, the supernatant was absorbed into a new centrifuge tube, and then acetonitrile containing 0.1% TFA was added at 1/1 volume. Vortexing for 30 s, the samples were centrifuged at 14,000 r/min for 20 min, the supernatant was aspirated and sterilized using a 0.22 μm sterilization filter, and 30 μL of the sample was used for HPLC determination. The pharmacokinetic parameters were calculated using Phoenix Winnonlin 7.0 software and analyzed with non-atrioventricular model. Drug–time curves were plotted using Graphpad Prim, and Mean ± SD was used to interpolate each point during drug–time curve fitting.

[2] = system: E. coli Y1; experiment: Therapeutic experiment, survival of E. coli-infected mice; type: in vivo, KM mice; conditions: within 72 h, 10 mice per group
Protocol: The mice (female, 18–21 g) were randomly divided into 6 groups, with PBS dilution as the control group. A total of 1–5 groups were injected intraperitoneally with 0.5 mL of E. coli solution containing […] CFU/mL, respectively. After inoculation, the mice were observed continuously for 5 days, and the mortality rate was recorded. The minimum dose (LD 100) at which all mice die within 5 days was used as the optimal dose for the bacterial attack in this experiment.
In order to further evaluate the therapeutic potential of antimicrobial peptide C-LR18, a mouse model infected with E. coli was constructed in this study. The Km mice (female, 18–21 g) were maintained at constant room temperature [(25 ± 2) °C] with free access to food and water for 48 h. […] A total of 0.5 mL of E. coli Y1 suspension (10^9 CFU/m L) was intraperitoneally injected into each group of mice. One hour after challenge, different doses of C-LR18 (2.5 mg/kg, 5 mg/kg, and 7.5 mg/kg) and polymyxin B (5 mg/kg) were intraperitoneally injected into mice. The group injected with the same dose of physiological water was the control group.

[3] = system: E. coli ATCC25922; experiment: Stability in artificial gastric and intestinal fluid, read out by MIC assay; type: in vitro ADME
Protocol: (§1) The MIC test was performed using the method recommended by the National Committee for Clinical Laboratory Standards (NCCLS) Standards and Guidelines, and the method was modified according to the characteristics of antimicrobial peptides. The bacteria were cultured at 37 °C for 16 h, and the microbial suspension was diluted to a final concentration of 5 × 10^5 CFU/mL. Then, 50 µL of bacterial solution was mixed with 50 µL of MHB containing different concentrations peptides (0.5–256 µM) in a 96-well plate. […] The assays were performed three times. Geometric mean MIC represents the average MIC of the peptide against all the tested strains.
(§2) The stability of LR18 and C-LR18 in protease, serum, and gastrointestinal conditions was determined using MIC assay, as described previously.
The stability in gastrointestinal conditions was also determined. The peptides were diluted in artificial gastric fluid and artificial intestinal fluid, digested in water bath at 37 °C for 0.5 and 1 h, and then inactivated in water bath at 60 °C for 30 min. Then, the PH of the solution was adjusted to 7.0 with 10% Na2CO3. Subsequent steps were the same as for the MIC assay. The assays were performed three times.

[4] = system: Gram-negative bacteria; experiment: Geometric mean MIC (MBC) and therapeutic index; type: cell-based; conditions: average MIC against the tested Gram-negative strains
Protocol: as §1
MBC detection was performed according to the method of Taiyari et al.. According to the MIC results, 50 µL of bacterial cultures was absorbed from the minimum inhibitory concentration hole and the three previous holes, respectively; transferred to a new MH solid medium; and incubated in an incubator at 37 °C overnight, and the bacteria on the plate were counted. The concentration of antibacterial peptide that kills 99.99% of the tested bacteria is defined as the minimum bactericidal concentration (MBC) of the peptide. The experiment was repeated three times. Geometric mean MBC represents the average […] of the peptide against all the tested strains.

[5] = system: E. coli ATCC25922; experiment: Stability in protease, read out by MIC assay; type: in vitro ADME; conditions: 1 mg/mL papain for 1 h
Protocol: as §1, §2
To detect the stability of peptides in protease, the peptides were diluted in 1 mg/mL of trypsin, pepsin, papain, and protease K, respectively, and incubated at 37 °C for 1 h. Then, the protease in the peptide solutions was inactivated in a water bath at 60 °C for 30 min. Subsequent steps were the same as for the MIC assay. The assays were performed three times.

CC(C)C[C@@H]1NC(=O)[C@H](CCCNC(=N)N)NC(=O)[C@H](CCCNC(=N)N)NC(=O)[C@H](CC(C)C)NC(=O)[C@H](CC(C)C)NC(=O)[C@H](CCCNC(=N)N)NC(=O)[C@H](CC(C)C)NC(=O)[C@@H]2CCCN2C(=O)[C@H](CCCNC(=N)N)NC(=O)[C@H](CCCNC(=N)N)NC(=O)[C@@H]2CCCN2C(=O)[C@H](CC(C)C)NC(=O)[C@H](CCCNC(=N)N)NC(=O)[C@H](CC(C)C)NC(=O)[C@H](CC(C)C)NC(=O)[C@H](CCCNC(=N)N)NC(=O)[C@H](CCCNC(=N)N)NC(=O)[C@H](CC(C)C)NC(=O)[C@@H](N)CSSC[C@@H](C(=O)O)NC1=O [C-LR18] (H-CLRRLLRLPRRPLRLLRRLC-OH; disulfide 1-20; N-terminus and C-terminus assumed)
half-life in rats relative to LR18 ([1]; SD rats iv): 4.66 times
prolongation of half-life in rats versus LR18 ([1]; SD rats iv): 10 min
Cmax ([1]; SD rats, tail vein, 5 mg/kg, HPLC, n = 3): 254.23 ± 6.30 µg/mL
AUC0-t ([1]; SD rats, tail vein, 5 mg/kg, non-compartmental, HPLC, n = 3 (method: 6 rats per group)): 3376.13 ± 37.72 µg·min/mL
MRT ([1]; rat, plasma, iv, SD rats, tail vein, 5 mg/kg, HPLC, n = 3, read-out: MRT0-t (converted)): 13.5 min
half-life ([1]; rat, plasma, iv, SD rats, tail vein, 5 mg/kg, HPLC, n = 3, read-out: T1/2β (terminal elimination half-life)): 12.7 ± 0.79 min
survival rate of mice ([2]; 2.5 mg/kg ip 1 h after ip 0.5 mL E. coli Y1 10^9 CFU/mL): 20%
survival rate of mice ([2]; 5 mg/kg ip 1 h after ip 0.5 mL E. coli Y1 10^9 CFU/mL): 40%
survival rate of mice ([2]; 7.5 mg/kg ip 1 h after ip 0.5 mL E. coli Y1 10^9 CFU/mL): 60%
increase of MIC ([3]; artificial gastric fluid 30 min): 8 times
increase of MIC ([3]; artificial intestinal fluid 30 min): 4 times
increase of MIC ([3]; artificial intestinal fluid 60 min): 16 times
Geometric mean MIC [4]: 2 µM
change of antibacterial activity after papain [5]: remained unchanged
